Results from patent US11306115B2, “Aminoglycoside derivatives and uses thereof in treating genetic disorders” (priority 2015, dated 2022).
Entries after “also recorded” stand apart in the source; their conditions may differ.

How the values were obtained:
[1] = tested on: cystic fibrosis G542X nonsense mutation; test: Readthrough activity in cell-free assay, cystic fibrosis G542X nonsense mutation suppression dose-response; type: biochemical, rabbit; conditions: concentration range 0-50 μM; for mutation suppression activity (firefly expression and firefly/renilla expression ratio, G542X mutant sequence): FIGS. 4-7; for protein synthesis inhibitory effect (expression levels up or downstream of the WT sequence): FIGS. 4A, 4C, 4E, 6
Method: (§1) The plasmids were transcribed in vitro and translated using rabbit reticulocytes (TNT mix) and then tested for the expression levels of the firefly and renilla luciferases. WT plasmids expressed both firefly and renilla luciferases while mutant plasmids expressed only the renilla luciferase due to the stop codon found in the inserted sequence. The readthrough assays were conducted for the tested compounds and the controls by adding the compounds to the in vitro transcription/translation reaction mixture. In case the compounds exerted suppression of the premature nonsense/stop codon mutation, the firefly luciferase was expressed and a fold-change in its expression was observed.
Readthrough activity of Cystic Fibrosis (CF) mutation G542X was tested using the compounds presented in Table 1, and the mutation suppression was calculated based on firefly/renilla expression ratio values, and normalized with respect to the expression level of the WT and the control sample (no tested compound).

[2] = tested on: Rett syndrome R168X, R270X and R294X nonsense mutations; test: Readthrough activity in cell-free assay, Rett syndrome nonsense mutations suppression; type: biochemical, rabbit; conditions: 5 μM, FIGS. 8A-C; for firefly/renilla expression ratio compared with the control, wild type cell extracts: WT
Method: as §1
FIGS. 8A-C present the results of Rett syndrome R168X (FIG. 8A), R270X (FIG. 8B) and R294X (FIG. 8C) nonsense mutations suppression cell-free assays conducted for six exemplary compounds according to embodiments of the present invention, NB144, NB145, NB146, NB150, NB151 and NB152, at a concentration of 5 μM. As shown therein, when compared with the control (non-treated cell extracts), the wild type cell extracts are unaffected (approx. 100%); however, in all three Rett syndrome mutation models there is a significant impact of the different treatments on the readthrough activity (>>>100%).

[3] = tested on: Rett syndrome causing premature stop codon mutations R168X, R270X and R294X; type: cell-based, human; conditions: offered as explanation of limited readthrough level, 0.3 and 1 mM

| Compound | mutation suppression activity (firefly expression and firefly/renilla expression ratio, G542X mutant sequence) [1] | protein synthesis inhibitory effect (expression levels up or downstream of the WT sequence) [1] | readthrough activity, comparison in words [2] | firefly/renilla expression ratio compared with the control, wild type cell extracts [2] | cytotoxicity [3] |
| --- | --- | --- | --- | --- | --- |
| C[C@@H](O)C1O[C@H](O[C@@H]2C(N)C[C@@H](NC(=O)C(O)CCN)C(O)C2O[C@@H]2O[C@H](CNC(=N)N)C(O)C2O)C(N)C(O)[C@@H]1O (stereo in doubt) [NB152] | notable dose-dependent readthrough activity | protein synthesis inhibition | higher activity compared to NB150 and NB151 | approx. 100% |  |
| C[C@@H](O)C1O[C@H](O[C@@H]2C(N)CC(NCc3ccccc3)[C@@H](O)C2O)C(N)C(O)[C@@H]1O (stereo in doubt) [NB145] | notable dose-dependent readthrough activity |  |  | approx. 100% |  |
| CC(C)CNC1CC(N)[C@@H](O[C@H]2OC([C@@H](C)O)[C@@H](O)C(O)C2N)C(O)[C@@H]1O (stereo in doubt) [NB144] | notable dose-dependent readthrough activity |  |  | approx. 100% |  |
| CN[C@@H]1[C@@H](O)[C@@H](O[C@@H]2[C@@H](O)[C@H](O[C@H]3O[C@H]([C@@H](C)O)[C@@H](O)[C@H](O)[C@H]3N)[C@@H](N)C[C@H]2N)OC[C@]1(C)O [Compound G418] |  |  |  |  | significant cytotoxicity |
| C[C@@H](O)C1O[C@H](O[C@@H]2C(N)C[C@@H](N)C(O)C2O[C@@H]2O[C@H](CNC(=N)N)C(O)C2O)C(N)C(O)[C@@H]1O (stereo in doubt) [NB151] | notable dose-dependent readthrough activity |  |  | approx. 100% |  |
| C[C@@H](O)C1O[C@H](O[C@@H]2C(N)CC(NC(=N)N)[C@@H](O)C2O)C(N)[C@H](O)[C@@H]1O (stereo in doubt) [NB150] | notable dose-dependent readthrough activity |  |  | approx. 100% |  |
| CCCNC1CC(N)[C@@H](O[C@H]2OC([C@@H](C)O)[C@@H](O)C(O)C2N)C(O)[C@@H]1O (stereo in doubt) [NB146] | clearly dose-dependent; also recorded: notable dose-dependent readthrough activity | more protein synthesis inhibitory effect | better activity compared to NB144 and NB145 | approx. 100% |  |
